IC50 and activation data for 18 compounds are collected here from patent US8501750B2, “Heterocyclic compound and use thereof” (Takeda Pharmaceutical Company Limited, priority 2007, dated 2013).

Where a name gives a salt, the structure may show the parent alone. Read-outs that look alike come from different tables or passages of the source.

One test concerns the target AT1 receptor (Homo sapiens (Human), UniProt P30556). The test can be described thus: AT1 receptor binding inhibitory action.
The target of the next test is PPARγ (Homo sapiens (Human), UniProt P37231). The test can be described thus: PPARγ activating action (luciferase reporter in PPARγ:RXRα:4ERPP/CHO-K1 cells). Type of test: cell-based. The settings on record: CHO-K1, 24 h, read-out: PPARγ activating action (activation % (1 μM)). On the procedure: Then the medium was removed from the 96-well half area white plate, 45 μl of Ham's F12 medium containing 0.1% fatty acid-free bovine serum albumin (BSA) and 5 μl of test compound were added, and the cells were cultured in a CO2 gas incubator at 37° C. for 1 day. The medium was removed and 20 μl of PicaGene 7.5 [manufactured by Dainippon Ink and Chemicals Corporation, Japan] diluted 2-fold with HBSS (HANKS' BALANCED SALT SOLUTION) [manufactured by BIO WHITTAKER, USA] was added. After stirring, the luciferase activity was determined using 1420 ARVO Multilabel Counter [manufactured by PerkinElmer, USA]. […] A CHO-K1 cell cultured in a 150 cm^2 cell culture flask [manufactured by Corning Costar Corporation, USA] containing Ham's F12 medium [manufactured by INVITROGEN, USA] supplemented with 10% fetal bovine serum [manufactured by INVITROGEN, USA] was scraped by treating with 0.5 g/L trypsin-0.2 g/L EDTA (ethylenediaminetetraacetic acid) [manufactured by Life Technologies, Inc., USA], and then the cell was washed with PBS (Phosphate-buffered saline) [manufactured by INVITROGEN, USA], centrifuged (1000 rpm, 5 minutes) and suspended in PBS. Subsequently, DNA was introduced into the cell under the conditions shown below using GENE PULSER [manufactured by Bio-Rad Laboratories, USA]. […] Subsequently, the cell was transferred into a F12 medium containing 10% fetal bovine serum and cultured for 24 hours, and then the cell was scraped again and centrifuged, and then suspended in Ham's F12 medium containing 10% fetal bovine serum supplemented with 500 μg/ml of Geneticin [manufactured by INVITROGEN, USA] and 250 μg/ml of Zeocin [manufactured by INVITROGEN, USA]. The obtained suspension was diluted to the density of 10^4 cells/ml and inoculated in a 96-well plate [manufactured by Corning Costar Corporation, USA], which was cultured in a CO2 gas incubator at 37° C., whereby obtaining a Geneticin- and Zeocin-resistant transformant.

Where [1] appears, read: test compound 1 μM, luciferase activity relative to control compound X (1 μM) = 100%, non-administration group = 0%.

Chain of AT1 receptor (P30556 whole entry): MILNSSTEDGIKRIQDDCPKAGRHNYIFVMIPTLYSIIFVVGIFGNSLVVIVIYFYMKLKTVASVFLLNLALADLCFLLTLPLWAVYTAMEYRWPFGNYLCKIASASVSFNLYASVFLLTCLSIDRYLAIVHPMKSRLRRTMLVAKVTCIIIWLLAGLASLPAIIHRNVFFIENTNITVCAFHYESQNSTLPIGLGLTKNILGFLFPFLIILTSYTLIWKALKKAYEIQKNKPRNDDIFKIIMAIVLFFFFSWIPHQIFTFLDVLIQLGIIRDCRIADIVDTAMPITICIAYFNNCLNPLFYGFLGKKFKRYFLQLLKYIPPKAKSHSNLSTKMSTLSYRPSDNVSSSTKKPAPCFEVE
Chain of PPARγ (P37231 29-505): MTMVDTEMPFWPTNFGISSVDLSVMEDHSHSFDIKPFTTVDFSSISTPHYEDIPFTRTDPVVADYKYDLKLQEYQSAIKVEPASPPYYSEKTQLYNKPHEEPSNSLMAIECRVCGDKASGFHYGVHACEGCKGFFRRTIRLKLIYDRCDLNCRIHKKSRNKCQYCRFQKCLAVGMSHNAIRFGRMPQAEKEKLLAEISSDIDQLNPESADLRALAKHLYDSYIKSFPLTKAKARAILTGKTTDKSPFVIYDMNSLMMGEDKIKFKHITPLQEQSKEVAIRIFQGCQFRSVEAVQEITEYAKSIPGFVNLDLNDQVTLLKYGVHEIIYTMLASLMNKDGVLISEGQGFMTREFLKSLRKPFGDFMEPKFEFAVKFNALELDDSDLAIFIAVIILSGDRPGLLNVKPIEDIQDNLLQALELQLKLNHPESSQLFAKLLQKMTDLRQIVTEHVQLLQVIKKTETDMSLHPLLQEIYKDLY
Chain of PPARγ (P19793 whole entry partner): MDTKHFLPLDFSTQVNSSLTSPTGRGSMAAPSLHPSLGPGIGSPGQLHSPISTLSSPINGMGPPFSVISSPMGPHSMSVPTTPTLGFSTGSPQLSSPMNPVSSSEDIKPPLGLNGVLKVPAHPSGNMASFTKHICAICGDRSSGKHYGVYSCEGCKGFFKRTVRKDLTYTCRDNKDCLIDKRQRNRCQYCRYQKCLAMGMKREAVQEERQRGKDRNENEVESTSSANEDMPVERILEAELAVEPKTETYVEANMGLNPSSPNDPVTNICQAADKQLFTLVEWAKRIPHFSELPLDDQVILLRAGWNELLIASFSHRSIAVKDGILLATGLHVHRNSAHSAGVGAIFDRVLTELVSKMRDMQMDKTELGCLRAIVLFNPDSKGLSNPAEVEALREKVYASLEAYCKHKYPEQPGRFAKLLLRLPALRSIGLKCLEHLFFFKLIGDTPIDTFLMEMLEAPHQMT

Take `CCc1cc2c(=O)n(CC(=O)C34CC5CC(CC(C5)C3)C4)c(=O)n(Cc3ccc(-c4ccccc4-c4noc(=O)[nH]4)cc3)c2s1` [Ex. 132, 3-[2-(1-adamantyl)-2-oxoethyl]-6-ethyl-1-{[2′-(5-oxo-4,5-dihydro-1,2,4-oxadiazol-3-yl)biphenyl-4-yl]methyl}thieno[2,3-d]pyrimidine-2,4(1H,3H)-dione]: at AT1 receptor, the IC50 stood at 1.7 nM. The activation at 1 µM at PPARγ (setting [1]) was 50%.
`COc1ccc(C(=O)Cn2c(=O)c3cc(C4CC4)sc3n(Cc3c(F)cc(-c4ccccc4-c4noc(O)n4)cc3F)c2=O)cc1` [Ex. 135, 6-cyclopropyl-1-{[3,5-difluoro-2′-(5-oxo-4,5-dihydro-1,2,4-oxadiazol-3-yl)biphenyl-4-yl]methyl}-3-[2-(4-methoxyphenyl)-2-oxoethyl]thieno[2,3-d]pyrimidine-2,4(1H,3H)-dione potassium salt] showed an IC50 on AT1 receptor of 1.5 nM. For the same compound, the activation at 1 µM at PPARγ came out at 71%.
In turn, `O=C(Cn1c(=O)c2cc(CC(F)(F)F)sc2n(Cc2ccc(-c3ccccc3-c3noc(=O)[nH]3)cc2)c1=O)C1CCCCC1` [Ex. 136, 3-(2-cyclohexyl-2-oxoethyl)-1-{[2′-(5-oxo-4,5-dihydro-1,2,4-oxadiazol-3-yl)biphenyl-4-yl]methyl}-6-(2,2,2-trifluoroethyl)thieno[2,3-d]pyrimidine-2,4(1H,3H)-dione] came in with an IC50 at AT1 receptor of 1.5 nM. On PPARγ (setting [1]), the activation at 1 µM stood at 36%.
Take `CCc1cc2c(=O)n(CC(=O)c3nc4ccccc4n3C)c(=O)n(Cc3ccc(-c4ccccc4-c4noc(=O)[nH]4)cc3)c2s1` [Ex. 140, 6-ethyl-3-[2-(1-methyl-1H-benzoimidazol-2-yl)-2-oxoethyl]-1-{[2′-(5-oxo-4,5-dihydro-1,2,4-oxadiazol-3-yl)biphenyl-4-yl]methyl}thieno[2,3-d]pyrimidine-2,4(1H,3H)-dione]: the half-maximal inhibitory concentration (IC50) at AT1 receptor was 1.7 nM. At PPARγ (setting [1]), the activation at 1 µM was determined as 26%.
With `CCc1cc2c(=O)n(C/C(=N/OC)C(C)(C)C)c(=O)n(Cc3ccc(-c4ccccc4-c4noc(=O)[nH]4)cc3)c2s1` [Ex. 142, 6-ethyl-3-[2-(methoxyimino)-3,3-dimethylbutyl]-1-{[2′-(5-oxo-4,5-dihydro-1,2,4-oxadiazol-3-yl)biphenyl-4-yl]methyl}thieno[2,3-d]pyrimidine-2,4(1H,3H)-dione], the half-maximal inhibitory concentration (IC50) at AT1 receptor worked out at 1.5 nM. The activation at 1 µM on PPARγ (setting [1]) worked out at 38%.
For `CC(C)(C)C(O)Cn1c(=O)c2cc(C3CC3)sc2n(Cc2ccc(-c3ccccc3-c3noc(=O)[nH]3)cc2)c1=O` (stereo not drawn) [Ex. 143, 6-cyclopropyl-3-(2-hydroxy-3,3-dimethylbutyl)-1-{[2′-(5-oxo-4,5-dihydro-1,2,4-oxadiazol-3-yl)biphenyl-4-yl]methyl}thieno[2,3-d]pyrimidine-2,4(1H,3H)-dione] the same measures were 1.4 nM and 45%.
In the case of `CCc1cc2c(=O)n(CC3(C)COC3)c(=O)n(Cc3ccc(-c4ccccc4-c4noc(=O)[nH]4)cc3)c2s1` [Ex. 144, 6-ethyl-3-[(3-methyloxetan-3-yl)methyl]-1-{[2′-(5-oxo-4,5-dihydro-1,2,4-oxadiazol-3-yl)biphenyl-4-yl]methyl}thieno[2,3-d]pyrimidine-2,4(1H,3H)-dione], the IC50 at AT1 receptor is 1.7 nM. Besides, the activation at 1 µM at PPARγ (setting [1]) stood at 40%.
Take `CCc1cc2c(=O)n(CC3(O)CCOCC3)c(=O)n(Cc3ccc(-c4ccccc4-c4noc(=O)[nH]4)cc3)c2s1` [Ex. 145, 6-ethyl-3-[(4-hydroxytetrahydro-2H-pyran-4-yl)methyl]-1-{[2′-(5-oxo-4,5-dihydro-1,2,4-oxadiazol-3-yl)biphenyl-4-yl]methyl}thieno[2,3-d]pyrimidine-2,4(1H,3H)-dione]: at AT1 receptor, the IC50 was 1.7 nM. In addition, the activation at 1 µM at PPARγ (setting [1]) amounted to 36%.
For `CCc1cc2c(=O)n(CC(=O)C(C)(C)COC(C)=O)c(=O)n(Cc3ccc(-c4ccccc4-c4noc(=O)[nH]4)cc3)c2s1` [Ex. 148, 4-[6-ethyl-2,4-dioxo-1-{[2′-(5-oxo-4,5-dihydro-1,2,4-oxadiazol-3-yl)biphenyl-4-yl]methyl}-1,4-dihydrothieno[2,3-d]pyrimidin-3(2H)-yl]-2,2-dimethyl-3-oxobutyl acetate] the same measures were 1.5 nM and 33%.
`CCc1cc2c(=O)n(CC(O)C(C)(C)C)c(=O)n(Cc3ccc(-c4ccccc4-c4noc(=O)[nH]4)cc3)c2s1` (stereo not drawn) [Ex. 149, 6-ethyl-3-(2-hydroxy-3,3-dimethylbutyl)-1-{[2′-(5-oxo-4,5-dihydro-1,2,4-oxadiazol-3-yl)biphenyl-4-yl]methyl}thieno[2,3-d]pyrimidine-2,4(1H,3H)-dione] yielded an IC50 at AT1 receptor of 1.8 nM. Besides, the activation at 1 µM on PPARγ (setting [1]) turned out to be 50%.
The compound `CCc1cc2c(=O)n(CC(=O)c3ccc(Cl)s3)c(=O)n(Cc3ccc(-c4ccccc4-c4noc(=O)[nH]4)cc3)c2s1` [Ex. 150, 3-[2-(5-chloro-2-thienyl)-2-oxoethyl]-6-ethyl-1-{[2′-(5-oxo-4,5-dihydro-1,2,4-oxadiazol-3-yl)biphenyl-4-yl]methyl}thieno[2,3-d]pyrimidine-2,4(1H,3H)-dione] displayed an IC50 on AT1 receptor of 1.5 nM. On PPARγ (setting [1]), the activation at 1 µM amounted to 33%.
For `CCc1cc2c(=O)n(CC(O)c3ccc(OC)cc3)c(=O)n(Cc3ccc(-c4ccccc4-c4noc(=O)[nH]4)cc3F)c2s1` (stereo not drawn) [Ex. 152, 6-ethyl-1-{[3-fluoro-2′-(5-oxo-4,5-dihydro-1,2,4-oxadiazol-3-yl)biphenyl-4-yl]methyl}-3-[2-hydroxy-2-(4-methoxyphenyl)ethyl]thieno[2,3-d]pyrimidine-2,4(1H,3H)-dione] the same measures were 1.5 nM and 40%.
For `CCc1cc2c(=O)n(CC(OC(C)=O)c3ccc(OC)cc3)c(=O)n(Cc3ccc(-c4ccccc4-c4noc(=O)[nH]4)cc3F)c2s1` (stereo not drawn) [Ex. 153, 2-[6-ethyl-1-{[3-fluoro-2′-(5-oxo-4,5-dihydro-1,2,4-oxadiazol-3-yl)biphenyl-4-yl]methyl}-2,4-dioxo-1,4-dihydrothieno[2,3-d]pyrimidin-3(2H)-yl]-1-(4-methoxyphenyl)ethyl acetate] the same measures were 1.3 nM and 39%.
`CCc1cc2c(=O)n(CC(C)(C)C)c(=O)n(Cc3ccc(-c4ccccc4-c4noc(=O)[nH]4)cc3)c2s1` [Ex. 154, 3-(2,2-dimethylpropyl)-6-ethyl-1-{[2′-(5-oxo-4,5-dihydro-1,2,4-oxadiazol-3-yl)biphenyl-4-yl]methyl}thieno[2,3-d]pyrimidine-2,4(1H,3H)-dione] yielded a 50% inhibitory concentration (IC50) on AT1 receptor of 1.9 nM. The activation at 1 µM on PPARγ (setting [1]) stood at 51%.
For `CCc1cc2c(=O)n(CC(=O)c3ccc(OC)c(F)c3)c(=O)n(Cc3ccc(-c4ccccc4-c4noc(=O)[nH]4)cc3F)c2s1` [Ex. 157, 6-ethyl-3-[2-(3-fluoro-4-methoxyphenyl)-2-oxoethyl]-1-{[3-fluoro-2′-(5-oxo-4,5-dihydro-1,2,4-oxadiazol-3-yl)biphenyl-4-yl]methyl}thieno[2,3-d]pyrimidine-2,4(1H,3H)-dione] the same measures were 1.4 nM and 35%.
Regarding `CCCc1cc2c(=O)n(CC(=O)c3ccc(OC)cc3)c(=O)n(Cc3ccc(-c4ccccc4-c4noc(=O)[nH]4)cc3F)c2s1` [Ex. 158, 1-{[3-fluoro-2′-(5-oxo-4,5-dihydro-1,2,4-oxadiazol-3-yl)biphenyl-4-yl]methyl}-3-[2-(4-methoxyphenyl)-2-oxoethyl]-6-propylthieno[2,3-d]pyrimidine-2,4(1H,3H)-dione], the IC50 at AT1 receptor was 1.7 nM. In addition, the activation at 1 µM at PPARγ (setting [1]) is 30%.
For `CCc1cc2c(=O)n(-c3ccc(OC(C)C)cc3)c(=O)n(Cc3ccc(-c4ccccc4-c4noc(=O)[nH]4)cc3F)c2s1` [Ex. 180, 6-ethyl-1-{[3-fluoro-2′-(5-oxo-4,5-dihydro-1,2,4-oxadiazol-3-yl)biphenyl-4-yl]methyl}-3-(4-isopropoxyphenyl)thieno[2,3-d]pyrimidine-2,4(1H,3H)-dione] the same measures were 1.6 nM and 50%.
Turning to `CCc1cc2c(=O)n(-c3ccc4c(c3)CC(C)(C)O4)c(=O)n(Cc3ccc(-c4ccccc4-c4noc(=O)[nH]4)cc3F)c2s1` [Ex. 181, 3-(2,2-dimethyl-2,3-dihydro-1-benzofuran-5-yl)-6-ethyl-1-{[3-fluoro-2′-(5-oxo-4,5-dihydro-1,2,4-oxadiazol-3-yl)biphenyl-4-yl]methyl}thieno[2,3-d]pyrimidine-2,4(1H,3H)-dione], on AT1 receptor, the IC50 stood at 1.2 nM. Besides, at PPARγ (setting [1]), the activation at 1 µM stood at 55%.
